Laboratory results taken from patent US8952169B2 (Genentech, Inc., priority 2012, dated 2015).

Assays:
[1] = biological target: T1, hNav1.7 (Homo sapiens (Human), UniProt Q15858); experiment: Patch voltage clamp electrophysiology (PatchXpress), HEK-293 cells, inactivated state block; assay type: cell-based; conditions: read-out: EP_PX 293 hNav1.7 (IC50)
[2] = biological target: hNav1.5 (Homo sapiens (Human), UniProt Q14524); experiment: as above; conditions: read-out: EP_PX 293 hNav1.5 (IC50), β1 coexpressed, holding −60 mV;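 note: control was the sodium current recorded in 0.5% DMSO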
hNav1.5, sequence (Q14524 whole entry): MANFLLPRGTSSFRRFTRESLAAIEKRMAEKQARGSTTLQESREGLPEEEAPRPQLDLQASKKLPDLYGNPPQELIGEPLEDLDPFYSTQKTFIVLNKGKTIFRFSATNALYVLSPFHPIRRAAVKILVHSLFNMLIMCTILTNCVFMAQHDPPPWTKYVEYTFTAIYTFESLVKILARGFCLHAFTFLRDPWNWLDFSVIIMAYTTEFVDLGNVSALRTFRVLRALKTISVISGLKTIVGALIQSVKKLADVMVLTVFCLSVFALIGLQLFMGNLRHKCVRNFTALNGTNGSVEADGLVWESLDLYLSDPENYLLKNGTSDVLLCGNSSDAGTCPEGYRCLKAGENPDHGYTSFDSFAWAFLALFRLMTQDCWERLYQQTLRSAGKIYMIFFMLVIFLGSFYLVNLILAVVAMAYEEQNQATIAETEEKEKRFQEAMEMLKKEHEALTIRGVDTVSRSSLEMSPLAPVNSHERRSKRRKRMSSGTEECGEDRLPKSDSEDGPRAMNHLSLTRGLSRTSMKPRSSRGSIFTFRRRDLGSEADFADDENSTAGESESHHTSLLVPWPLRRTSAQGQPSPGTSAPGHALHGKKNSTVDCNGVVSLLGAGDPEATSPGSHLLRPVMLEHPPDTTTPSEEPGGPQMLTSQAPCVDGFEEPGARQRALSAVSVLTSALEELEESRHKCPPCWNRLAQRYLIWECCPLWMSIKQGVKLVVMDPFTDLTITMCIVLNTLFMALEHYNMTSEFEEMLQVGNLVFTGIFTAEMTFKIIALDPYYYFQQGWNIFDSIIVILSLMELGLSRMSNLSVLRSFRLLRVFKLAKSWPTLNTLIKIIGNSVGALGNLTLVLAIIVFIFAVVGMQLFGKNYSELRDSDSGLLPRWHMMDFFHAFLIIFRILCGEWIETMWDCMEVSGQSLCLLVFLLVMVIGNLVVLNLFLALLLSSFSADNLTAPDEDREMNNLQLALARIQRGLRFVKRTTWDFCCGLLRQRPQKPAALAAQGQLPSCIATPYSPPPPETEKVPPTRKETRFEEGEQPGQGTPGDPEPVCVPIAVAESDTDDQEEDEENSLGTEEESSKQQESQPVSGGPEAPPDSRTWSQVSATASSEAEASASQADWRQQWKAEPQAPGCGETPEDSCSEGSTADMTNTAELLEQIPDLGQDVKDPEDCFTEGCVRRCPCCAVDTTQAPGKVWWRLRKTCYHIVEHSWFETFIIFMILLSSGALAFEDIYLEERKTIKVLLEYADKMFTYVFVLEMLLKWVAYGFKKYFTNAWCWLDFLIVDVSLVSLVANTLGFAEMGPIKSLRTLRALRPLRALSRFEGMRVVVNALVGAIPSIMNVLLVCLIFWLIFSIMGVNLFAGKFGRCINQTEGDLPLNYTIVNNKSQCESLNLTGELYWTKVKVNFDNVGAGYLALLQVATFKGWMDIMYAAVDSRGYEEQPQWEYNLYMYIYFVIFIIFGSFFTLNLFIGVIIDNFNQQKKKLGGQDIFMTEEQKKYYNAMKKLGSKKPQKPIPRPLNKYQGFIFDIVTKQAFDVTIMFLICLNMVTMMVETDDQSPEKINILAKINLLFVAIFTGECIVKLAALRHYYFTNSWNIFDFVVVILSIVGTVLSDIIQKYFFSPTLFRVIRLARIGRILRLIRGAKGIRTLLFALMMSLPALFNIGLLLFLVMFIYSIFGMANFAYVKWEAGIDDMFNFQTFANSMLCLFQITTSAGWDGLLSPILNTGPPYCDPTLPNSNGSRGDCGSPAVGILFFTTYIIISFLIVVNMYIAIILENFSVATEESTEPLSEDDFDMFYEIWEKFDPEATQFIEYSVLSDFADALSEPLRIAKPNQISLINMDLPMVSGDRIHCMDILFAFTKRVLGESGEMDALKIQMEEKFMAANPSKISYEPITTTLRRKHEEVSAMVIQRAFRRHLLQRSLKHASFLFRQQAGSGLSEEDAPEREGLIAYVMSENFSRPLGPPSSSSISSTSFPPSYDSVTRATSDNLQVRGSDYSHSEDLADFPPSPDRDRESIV

[3] = biological target: T1, hNav1.7; experiment: Tritiated aryl sulfonamide binding to membranes from cells expressing hNav1.7 and the β1 subunit (competitive binding); conditions: read-out: NaV1.7 395 Memb Binding (IC50)
Summary of the method: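 Competitive displacement of 100 μM [3H]-labelled tritiated aryl sulfonamide from hNav1.7/β1 membranes, 18 h at room temperature in 100 mM NaCl, 20 mM Tris HCl pH 7.4. Non-specific binding defined with 1 μM unlabelled compound. Filter-bound radioactivity measured by liquid scintillation counting.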

[4] = HEK-293 cells, β1 coexpressed, inactivated state, holding −60 mV
[5] = membranes with hNav1.7 and β1 subunit, [3H]compound displacement, 18 h, room temperature

T1 sequence (Q15858 whole entry, looked up): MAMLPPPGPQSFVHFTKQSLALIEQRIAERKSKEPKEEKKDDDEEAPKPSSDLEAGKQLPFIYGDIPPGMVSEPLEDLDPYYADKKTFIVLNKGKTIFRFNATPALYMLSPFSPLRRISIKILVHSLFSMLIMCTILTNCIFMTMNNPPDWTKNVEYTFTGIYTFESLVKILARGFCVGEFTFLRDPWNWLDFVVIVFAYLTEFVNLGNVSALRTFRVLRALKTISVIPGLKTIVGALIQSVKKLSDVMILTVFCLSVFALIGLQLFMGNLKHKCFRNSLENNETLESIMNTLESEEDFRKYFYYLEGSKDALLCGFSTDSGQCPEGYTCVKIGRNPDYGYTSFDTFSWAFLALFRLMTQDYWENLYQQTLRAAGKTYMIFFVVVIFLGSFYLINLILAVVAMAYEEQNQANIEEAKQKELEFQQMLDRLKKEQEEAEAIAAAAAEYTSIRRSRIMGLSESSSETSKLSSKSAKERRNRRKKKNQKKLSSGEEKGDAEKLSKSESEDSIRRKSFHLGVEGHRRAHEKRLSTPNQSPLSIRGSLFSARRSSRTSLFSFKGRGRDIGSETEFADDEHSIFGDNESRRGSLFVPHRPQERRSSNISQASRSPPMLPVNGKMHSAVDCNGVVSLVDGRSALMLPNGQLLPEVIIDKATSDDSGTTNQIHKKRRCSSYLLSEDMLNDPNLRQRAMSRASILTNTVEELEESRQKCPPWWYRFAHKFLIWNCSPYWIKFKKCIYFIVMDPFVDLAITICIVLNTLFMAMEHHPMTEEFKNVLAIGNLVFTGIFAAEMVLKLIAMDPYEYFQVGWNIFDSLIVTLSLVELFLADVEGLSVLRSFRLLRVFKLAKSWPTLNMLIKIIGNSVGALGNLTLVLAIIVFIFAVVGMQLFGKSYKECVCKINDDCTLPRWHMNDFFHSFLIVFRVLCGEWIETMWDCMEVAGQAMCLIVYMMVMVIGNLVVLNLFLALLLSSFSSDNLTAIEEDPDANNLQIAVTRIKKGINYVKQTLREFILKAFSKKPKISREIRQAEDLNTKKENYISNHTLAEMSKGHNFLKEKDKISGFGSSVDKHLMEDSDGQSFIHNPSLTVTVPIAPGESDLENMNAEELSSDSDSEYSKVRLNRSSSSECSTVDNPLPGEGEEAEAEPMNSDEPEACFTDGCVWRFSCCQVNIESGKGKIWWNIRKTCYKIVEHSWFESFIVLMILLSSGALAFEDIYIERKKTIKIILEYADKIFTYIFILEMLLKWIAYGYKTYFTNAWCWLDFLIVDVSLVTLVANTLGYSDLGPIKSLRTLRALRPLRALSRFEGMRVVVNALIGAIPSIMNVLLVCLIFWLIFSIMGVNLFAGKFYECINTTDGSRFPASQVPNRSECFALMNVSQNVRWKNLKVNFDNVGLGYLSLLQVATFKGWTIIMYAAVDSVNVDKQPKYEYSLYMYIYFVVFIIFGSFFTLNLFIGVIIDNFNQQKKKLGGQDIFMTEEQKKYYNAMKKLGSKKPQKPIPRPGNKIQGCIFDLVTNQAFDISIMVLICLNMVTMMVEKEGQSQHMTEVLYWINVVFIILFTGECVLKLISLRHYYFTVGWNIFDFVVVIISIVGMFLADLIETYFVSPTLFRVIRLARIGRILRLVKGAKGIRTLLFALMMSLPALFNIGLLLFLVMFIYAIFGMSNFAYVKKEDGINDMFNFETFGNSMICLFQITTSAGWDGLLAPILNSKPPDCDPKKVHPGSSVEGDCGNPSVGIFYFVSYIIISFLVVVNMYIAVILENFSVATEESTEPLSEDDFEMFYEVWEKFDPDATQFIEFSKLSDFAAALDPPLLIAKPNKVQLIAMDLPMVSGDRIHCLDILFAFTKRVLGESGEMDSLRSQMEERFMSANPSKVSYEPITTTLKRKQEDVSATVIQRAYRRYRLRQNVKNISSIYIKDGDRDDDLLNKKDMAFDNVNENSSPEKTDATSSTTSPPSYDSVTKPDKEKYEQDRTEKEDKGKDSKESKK
T1 sequence (Q07699 whole entry partner, looked up): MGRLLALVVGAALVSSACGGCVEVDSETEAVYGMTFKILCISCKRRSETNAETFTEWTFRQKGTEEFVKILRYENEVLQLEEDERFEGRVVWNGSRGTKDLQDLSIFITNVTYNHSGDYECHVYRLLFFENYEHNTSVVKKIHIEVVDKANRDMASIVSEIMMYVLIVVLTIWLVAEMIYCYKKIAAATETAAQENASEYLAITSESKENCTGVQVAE

Compound | IC50 [1, 4] [µM] | IC50 [3, 5] [µM] | IC50 [2] [µM] | IC50 [1] [µM] | IC50 [3] [µM]
CS(=O)(=O)NC(=O)c1cc(Cl)c(OCC2CC3C4CCC(C4)C3C2)cc1F (stereo not shown) | 0.0036 | 0.009 | 0.743 |  | 
O=C(NS(=O)(=O)N1CCC1)c1cc(C2CC2)c(OCC23CCCCC2C3)cc1F (stereo not shown) | 0.002 | 0.006 | 0.16 |  | 
O=C(NS(=O)(=O)C1CC1)c1cc(C2CC2)c(OCC2CCC(F)(F)CC2)cc1F | 0.008 | 0.006 | 0.63 |  | 
CS(=O)(=O)NC(=O)c1cc(C2CC2)c(OCC2CCC(F)(F)CC2)cc1F |  |  | 5.23 |  | 
O=C(NS(=O)(=O)N1CC[C@H](O)C1)c1cc(C2CC2)c(OCC23CC4CC(CC(C4)C2)C3)cc1F |  | 0.01 | 0.11 |  | 
O=C(NS(=O)(=O)N1CCC1)c1cc(C2CC2)c(OCC2CCCCC2)cc1F |  |  | 0.04 | 0.001 | 0.006
CN(C)S(=O)(=O)NC(=O)c1cc(Cl)c(OCC23CC4CC(C2)C(F)(F)C(C4)C3)cc1F [Example 92] | 0.0531 | 0.221 | 3.76 |  | 
COCCS(=O)(=O)NC(=O)c1cnc(OCC23CC4CC(CC(C4)C2)C3)c(C2CC2)c1 | 0.37 | 0.72 | 15.3 |  | 
CS(=O)(=O)NC(=O)c1cc(Cl)c(OCC2CC3C4CCC(C4)C3C2)cc1F (stereo not shown) [Example 445] | 0.0036 | 0.0093 | 0.743 |  | 
O=C(NS(=O)(=O)N1CC(O)C1)c1cc(C2CC2)c(OCC23CC4CC(CC(C4)C2)C3)cc1F | 0.0107 | 0.007 | 0.0606 |  | 
O=C(NS(=O)(=O)C1CC1)c1cc(C2CC2)c(OCC23CC4(F)CC(F)(CC(F)(C4)C2)C3)cc1F | 0.02 | 0.005 | 0.43 |  | 
CS(=O)(=O)NC(=O)c1ccc(OCC23CC4CC(CC(C4)C2)C3)c(C2CC2)c1 | 0.00131 | 0.003 | 0.7 |  | 
O=C(NS(=O)(=O)C1CC1)c1cc(Cl)c(OCC2(C(F)(F)F)CCC2)cc1F [Example 328] | 0.07 | 0.024 |  |  | 
COCCS(=O)(=O)NC(=O)c1cc(C2CC2)c(OCC23CCCCC2C3)cc1F (stereo not shown) | 0.01 | 0.019 |  |  | 
CC1CCCC(C)C1COc1cc(F)c(C(=O)NS(=O)(=O)C2CC2)cc1Cl (stereo not shown) [Example 397] | 0.2 | 0.032 |  |  | 
O=C(NS(=O)(=O)N1CCC1)c1cc(C2CC2)c(OCC2CC=C(Cl)CC2)cc1F (stereo not shown) [Example 376] | 0.03 | 0.02 |  |  | 
O=C(NS(=O)(=O)N1CCC1)c1cc(C2CC2)c(OCC2(C(F)(F)F)CCC2)cc1F [Example 329] | 0.02 | 0.004 |  |  | 
O=C(NS(=O)(=O)C1CC1)c1cc(C2CC2)c(O[C@H]2C3CC4CC2C[C@](F)(C4)C3)cc1F | 0.043 | 0.011 |  |  | 
CC1(COc2cc(F)c(C(=O)NS(C)(=O)=O)cc2C2CC2)CCC(C(F)(F)F)CC1 (stereo not shown) | 0.059 | 0.004 |  |  | 
O=C(NS(=O)(=O)CCO)c1cc(C2CC2)c(OCC23CC4CC(CC(C4)C2)C3)cc1F | 0.0046 | 0.007 |  |  | 
O=C(NS(=O)(=O)N1CC(F)C1)c1cc(C2CC2)c(OCC2CCC3CC3C2)cc1F (stereo not shown) | 0.52 | 0.011 |  |  | 

Compound | IC50 [1, 4] [µM] | IC50 [3, 5] [µM] | IC50 [2] [µM] | IC50 [1] [µM] | IC50 [3] [µM]
O=C(NS(=O)(=O)N1CCC1)c1cc(C2CC2)c(OCC23CC4CC(C2)C(F)(F)C(C4)C3)cc1F | 0.006 | 0.004 |  |  | 
CC1(C)CCC(COc2cc(F)c(C(=O)NS(=O)(=O)N3CCC3)cc2C2CC2)CC1 [Example 309] |  |  |  | 0.079 | 0.006
CS(=O)(=O)NC(=O)c1cc(C2CC2)c(OC2CCC3(CCCCC3)CC2)cc1F | 0.12 | 0.007 |  |  | 
CCS(=O)(=O)NC(=O)c1cc(Cl)c(OCC2CCC3(CC2)CC3)cc1F [Example 400] | 0.097 | 0.02 |  |  | 
O=C(NS(=O)(=O)C1CC1)c1cc(Cl)c(OCC23CC4CC(CC(C4)C2)C3)cc1F |  |  | 0.427 |  | 
O=C(NS(=O)(=O)C1CC1)c1cc(C2CC2)c(O[C@@H]2C[C@@H]3CC[C@H]2C3)cc1F | 0.041 | 0.014 |  |  | 
CCS(=O)(=O)NC(=O)c1cc(C2CC2)c(OCC2CCC3(CC2)CC3)cc1F | 0.023 | 0.003 |  |  | 
O=C(NS(=O)(=O)N1CCC1)c1cc(C2CC2(F)F)c(OCC23CC4CC(CC(C4)C2)C3)cc1F (stereo not shown) | 0.34 | 0.005 |  |  | 
CS(=O)(=O)NC(=O)c1cc(C2CC2)c(O[C@H]2C3CC4CC2C[C@@](Cl)(C4)C3)cc1F | 0.007 | 0.009 |  |  | 
O=C(NS(=O)(=O)N1CCC1)c1cc(C2CC2)c(OCC2CCC3(CC2)CC3)cc1F | 0.006 | 0.004 |  |  | 
O=C(NS(=O)(=O)N1CCC1)c1cc(C2CC2)c(OCC2CCC3(CCC3)CC2)cc1F | 0.3 | 0.004 |  |  | 
COCCS(=O)(=O)NC(=O)c1cc(C2CC2)c(OCC2CCCCC2)cc1F |  |  | 0.14 |  | 
CC1(C)CCCC(Oc2cc(F)c(C(=O)NS(=O)(=O)C3CC3)cc2C2CC2)C1 (stereo not shown) | 0.053 | 0.006 |  |  | 
CC1(COc2cc(F)c(C(=O)NS(=O)(=O)C3CC3)cc2C2CC2)CCC(C(F)(F)F)CC1 (stereo not shown) [Example 426, 5-cyclopropyl-N-cyclopropylsulfonyl-2-fluoro-4-[[1-methyl-4-(trifluoromethyl)cyclohexyl]methoxy]benzamide] | 0.051 | 0.002 |  |  | 
O=C(NS(=O)(=O)N1CCC1)c1cc(C2CC2)c(O[C@H]2C3CC4CC2C[C@@](Cl)(C4)C3)cc1F | 0.094 | 0.01 |  |  | 
O=C(NS(=O)(=O)N1CCC1)c1cc(C2CC2)c(OC2C3CC4CC(C3)CC2C4)cc1F (stereo not shown) | 0.056 | 0.01 |  |  | 
O=C(NS(=O)(=O)C1CC1)c1cc(C2CC2)c(OC2CCC(F)(F)CC2)cc1F | 0.14 | 0.043 |  |  | 
O=C(NS(=O)(=O)C1CC1)c1cc(Cl)c(OC2CCC(F)(F)CC2)cc1F [Example 339] | 3.3 | 0.31 |  |  | 
O=C(NS(=O)(=O)C1CC1)c1cc(C2CC2)c(OCC2CCC3CC3C2)cc1F (stereo not shown) [Example 392] | 0.003 | 0.005 |  |  | 
CO[C@H]1CCN(S(=O)(=O)NC(=O)c2cc(C3CC3)c(OCC34CC5CC(CC(C5)C3)C4)cc2F)C1 | 0.3 | 0.029 |  |  | 

More lines, main results first:

IC50 [1, 4] [µM] | IC50 [3, 5] [µM] | Compound | IC50 [2] [µM] | IC50 [1] [µM] | IC50 [3] [µM]
0.009 | 0.001 | O=C(NS(=O)(=O)N1CCC1)c1cc(C2CC2)c(OCC2C3CC4CC(C3)CC2C4)cc1F (stereo not shown) | 0.13 |  | 
0.0076 | 0.051 | CS(=O)(=O)NC(=O)c1ccc(OCC23CC4CC(CC(C4)C2)C3)c(Br)c1 | 1.95 |  | 
 | 0.012 | CC1(C)[C@H]2CC[C@H](COc3cc(F)c(C(=O)NS(C)(=O)=O)cc3Cl)[C@@H]1C2 | 1.07 |  | 
0.0078 | 0.018 | O=C(NS(=O)(=O)N1CCC1)c1cc(C2CC2)c(OCC2CCC(F)(F)CC2)cc1F [Example 448, N-(azetidin-1-ylsulfonyl)-5-cyclopropyl-4-((4,4-difluorocyclohexyl)-methoxy)-2-fluorobenzamide] | 0.94 |  | 
 | 0.001 | O=C(NS(=O)(=O)N1CC(F)C1)c1cc(C2CC2)c(OCC23CC4CC(CC(C4)C2)C3)cc1F | 0.422 |  | 
0.0092 | 0.023 | O=C(NS(=O)(=O)NCCCO)c1cc(C2CC2)c(OCC23CC4CC(CC(C4)C2)C3)cc1F | 0.022 |  | 
 | 0.535 | CN(C)S(=O)(=O)NC(=O)c1cc(Cl)c(OC2CC3CC2C2CCCC32)cc1F (stereo not shown) | 7.82 |  | 
 | 0.01 | O=C(NS(=O)(=O)N1CC(F)(F)C1)c1cc(C2CC2)c(OCC23CC4CC(CC(C4)C2)C3)cc1F | 0.326 |  | 
0.002 | 0.009 | CS(=O)(=O)NC(=O)c1cc(C2CC2)c(OCC2CCC3CC3C2)cc1F (stereo not shown) |  |  | 
0.082 | 0.005 | O=C(NS(=O)(=O)C1CC1)c1cc(C2CC2)c(OCC2CN(C(c3ccccc3)c3ccccc3)C2)cc1F (single isomer, unassigned) |  |  | 
0.08 | 0.23 | O=C(NS(=O)(=O)N1CCC1)c1cc(C2CC2)c(OCCC2CCC(F)(F)CC2)cc1F |  |  | 
0.009 | 0.005 | 4-(adamantan-1-ylmethoxy)-N-(azetidin-1-ylsulfonyl)-3-chloro-5-fluorobenzamide [Example 416] |  |  | 
0.029 | 0.023 | O=C(NS(=O)(=O)N1CCC1)c1cc(C2CC2)c(OC2CCC3(CC2)CC3)cc1F |  |  | 
5.2 | 1.3 | O=C(NS(=O)(=O)N1CCC1)c1cc(F)c(OCC23CC4CC(CC(C4)C2)C3)c(Cl)c1F |  |  | 
0.0416 | 0.294 | CN(C)S(=O)(=O)NC(=O)c1cc(Cl)c(OCC2(C(F)(F)F)CCC2)cc1F |  |  | 
0.084 | 0.008 | O=C(NS(=O)(=O)N1CCC1)c1cc(C2CC2)c(OCC2CCC(Cl)(Cl)CC2)cc1F [Example 377] |  |  | 
0.0033 | 0.005 | CCc1cc(C(=O)NS(=O)(=O)N2CCC2)c(F)cc1OCC12CC3CC(CC(C3)C1)C2 |  |  | 
1.2 | 0.02 | O=C(NS(=O)(=O)N1CC(F)C1)c1cc(C2CC2)c(O[C@H]2C3CC4CC2C[C@](Cl)(C4)C3)cc1F |  |  | 
0.0229 | 0.013 | CC12CC3CC(C)(C1)CC(COc1cc(F)c(C(=O)NS(C)(=O)=O)cc1Cl)(C3)C2 [Example 23] |  |  | 
0.27 | 0.11 | O=C(NS(=O)(=O)N1CCC1)c1cc(C2CC2)c(OC2CCC(F)(F)CC2)cc1F |  |  | 
